The numbers were not newly measured in patent publication US20190083428A1, “SALT BALANCED VAGINAL PRODUCT AND METHOD” (Good Clean Love, Inc., priority 2014, published 2019), which cites them from elsewhere.

The conditions of series [1]: hyperosmolal concentrations.
The test system of the next series is HSV-2. Conditions: after a single exposure.

As for nonoxynol-9 [Example N9], the toxicity to lactobacilli entry in the series on lactobacilli is given as “toxic”.

Consider `OCC(O)CO` [glycerol], for which, in series [1], the toxicity entry is “obvious toxicity”.

Regarding `CC(O)CO` (stereo not shown) [propylene glycol], the toxicity entry in series [1] is “obvious toxicity”. Also, in the series with HSV-2, the “susceptibility to HSV-2” value is “markedly increased susceptibility”.
